Calls of active or inactive are those of the source. The calls are words filed in the database; no cut-off is given here.
Legend:
[1] = target: T1, Adrenergic receptor alpha-2 (Homo sapiens, UniProt P08913+P18825+P18089); assay: Displacement of [3H]RX821002 from human alpha2 adrenoceptor expressed in CHO cell membranes after 60 mins; format: cell-based
T1 sequence (P08913 whole entry): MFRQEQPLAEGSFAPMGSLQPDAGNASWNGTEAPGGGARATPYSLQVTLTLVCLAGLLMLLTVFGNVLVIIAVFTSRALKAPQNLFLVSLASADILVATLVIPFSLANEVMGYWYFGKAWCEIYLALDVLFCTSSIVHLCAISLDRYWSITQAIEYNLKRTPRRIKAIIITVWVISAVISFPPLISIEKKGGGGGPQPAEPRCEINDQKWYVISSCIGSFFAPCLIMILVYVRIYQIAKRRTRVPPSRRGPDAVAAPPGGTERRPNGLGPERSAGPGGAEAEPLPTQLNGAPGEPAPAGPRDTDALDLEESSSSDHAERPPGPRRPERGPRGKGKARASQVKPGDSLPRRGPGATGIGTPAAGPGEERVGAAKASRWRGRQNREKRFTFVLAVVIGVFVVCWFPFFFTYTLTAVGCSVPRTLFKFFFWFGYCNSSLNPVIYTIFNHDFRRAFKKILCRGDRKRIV
T1 sequence (P18825 whole entry): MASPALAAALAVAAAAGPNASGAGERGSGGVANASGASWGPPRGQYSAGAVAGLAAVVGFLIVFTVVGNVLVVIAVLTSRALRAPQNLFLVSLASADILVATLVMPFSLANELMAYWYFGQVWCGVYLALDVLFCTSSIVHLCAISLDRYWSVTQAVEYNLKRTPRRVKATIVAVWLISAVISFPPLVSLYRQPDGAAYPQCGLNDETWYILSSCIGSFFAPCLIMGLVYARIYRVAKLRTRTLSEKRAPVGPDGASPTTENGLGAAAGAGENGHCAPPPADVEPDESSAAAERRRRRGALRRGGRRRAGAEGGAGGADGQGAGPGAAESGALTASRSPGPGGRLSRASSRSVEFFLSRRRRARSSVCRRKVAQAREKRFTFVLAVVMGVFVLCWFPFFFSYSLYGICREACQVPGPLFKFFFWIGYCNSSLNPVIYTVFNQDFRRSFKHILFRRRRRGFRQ
T1 sequence (P18089 whole entry): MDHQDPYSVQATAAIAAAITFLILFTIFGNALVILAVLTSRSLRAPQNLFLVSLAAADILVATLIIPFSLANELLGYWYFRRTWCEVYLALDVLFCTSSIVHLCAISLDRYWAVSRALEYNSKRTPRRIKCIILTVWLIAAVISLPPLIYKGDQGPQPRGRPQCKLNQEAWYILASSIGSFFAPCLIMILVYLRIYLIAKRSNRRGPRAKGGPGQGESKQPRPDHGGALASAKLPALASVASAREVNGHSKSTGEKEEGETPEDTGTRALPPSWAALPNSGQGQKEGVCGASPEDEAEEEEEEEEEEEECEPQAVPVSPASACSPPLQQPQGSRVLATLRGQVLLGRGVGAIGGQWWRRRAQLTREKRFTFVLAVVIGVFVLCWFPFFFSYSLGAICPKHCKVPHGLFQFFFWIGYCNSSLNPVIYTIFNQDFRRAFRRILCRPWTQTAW

Rattus norvegicus [2] = assay: Reduction in heart rate in normotensive anaesthetized Wistar rat at 10 mg/kg, iv; set-up: scale not given: the % may be the effect or the level left
Rattus norvegicus [3] = assay: Reduction in mean arterial blood pressure in normotensive anaesthetized Wistar rat at 10 mg/kg, iv; set-up: scale not given: the % may be the effect or the level left
Rattus norvegicus [4] = assay: Reduction in heart rate in normotensive anaesthetized Wistar rat at 0.3 mg/kg administered intracisternally; format: functional; set-up: scale not given: the % may be the effect or the level left
Rattus norvegicus [5] = assay: Reduction in mean arterial blood pressure in normotensive anaesthetized Wistar rat at 0.3 mg/kg administered intracisternally; format: functional; set-up: scale not given: the % may be the effect or the level left
Nischarin = Nischarin (Rattus norvegicus, UniProt Q4G017); assay: Displacement of [125I] PIC from I1 imidazoline receptor in rat PC12 cells after 45 mins by gamma counting; format: cell-based, PC-12
Chain of Nischarin (Q4G017 whole entry): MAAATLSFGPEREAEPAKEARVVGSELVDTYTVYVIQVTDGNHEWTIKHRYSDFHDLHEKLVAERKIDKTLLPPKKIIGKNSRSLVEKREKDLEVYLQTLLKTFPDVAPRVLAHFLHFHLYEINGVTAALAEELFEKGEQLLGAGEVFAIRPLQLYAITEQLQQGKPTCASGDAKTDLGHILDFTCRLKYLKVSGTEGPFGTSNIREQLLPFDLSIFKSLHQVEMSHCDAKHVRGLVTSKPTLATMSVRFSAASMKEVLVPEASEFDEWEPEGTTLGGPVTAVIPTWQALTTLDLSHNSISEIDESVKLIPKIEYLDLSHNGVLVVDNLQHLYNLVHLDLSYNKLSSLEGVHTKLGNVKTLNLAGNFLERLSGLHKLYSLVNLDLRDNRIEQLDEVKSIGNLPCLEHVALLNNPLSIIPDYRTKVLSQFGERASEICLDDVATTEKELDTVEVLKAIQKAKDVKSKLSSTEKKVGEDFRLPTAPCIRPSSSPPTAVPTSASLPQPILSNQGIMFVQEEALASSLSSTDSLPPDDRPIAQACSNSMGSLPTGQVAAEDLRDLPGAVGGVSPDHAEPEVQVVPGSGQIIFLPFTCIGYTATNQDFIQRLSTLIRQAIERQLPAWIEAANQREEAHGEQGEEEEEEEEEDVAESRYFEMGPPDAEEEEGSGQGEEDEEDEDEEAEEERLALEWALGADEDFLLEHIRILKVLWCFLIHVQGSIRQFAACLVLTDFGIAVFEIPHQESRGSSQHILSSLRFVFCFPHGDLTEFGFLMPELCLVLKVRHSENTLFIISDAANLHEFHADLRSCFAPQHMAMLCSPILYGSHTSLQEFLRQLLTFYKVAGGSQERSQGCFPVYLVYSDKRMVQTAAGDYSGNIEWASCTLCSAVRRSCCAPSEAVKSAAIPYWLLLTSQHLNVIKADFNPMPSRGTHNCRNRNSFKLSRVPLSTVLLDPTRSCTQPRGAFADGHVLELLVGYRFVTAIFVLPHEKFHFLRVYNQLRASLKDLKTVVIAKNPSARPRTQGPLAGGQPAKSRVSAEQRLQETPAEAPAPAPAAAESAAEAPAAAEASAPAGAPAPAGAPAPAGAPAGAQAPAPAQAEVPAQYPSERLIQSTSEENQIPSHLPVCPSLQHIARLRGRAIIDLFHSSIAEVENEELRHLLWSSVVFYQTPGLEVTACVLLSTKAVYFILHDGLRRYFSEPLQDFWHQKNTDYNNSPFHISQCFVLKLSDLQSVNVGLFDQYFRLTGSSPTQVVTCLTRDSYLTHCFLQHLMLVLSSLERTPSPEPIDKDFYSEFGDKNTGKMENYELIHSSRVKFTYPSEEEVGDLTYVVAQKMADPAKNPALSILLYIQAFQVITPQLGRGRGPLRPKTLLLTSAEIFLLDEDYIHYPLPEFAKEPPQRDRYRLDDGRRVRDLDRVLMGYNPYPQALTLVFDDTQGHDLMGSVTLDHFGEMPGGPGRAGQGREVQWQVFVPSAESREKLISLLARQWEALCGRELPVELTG

Rattus norvegicus [6] = assay: Reduction in heart rate in normotensive anaesthetized Wistar rat at 3 mg/kg, iv; set-up: scale not given: the % may be the effect or the level left
Rattus norvegicus [7] = assay: Reduction in mean arterial blood pressure in normotensive anaesthetized Wistar rat at 3 mg/kg, iv; set-up: scale not given: the % may be the effect or the level left
CHO = assay: Selectivity ratio of Ki for I1 imidazoline receptor in rat PC12 cells to Ki for human alpha2 adrenoceptor expressed in CHO cell membranes; format: cell-based
Rattus norvegicus [8] = assay: Reduction in heart rate in normotensive anaesthetized Wistar rat at 10 mg/kg, iv; format: functional; set-up: scale not given: the % may be the effect or the level left

| Ki [1] | Ki (Nischarin; read-out: Ki) | SMILES | Activity (Rattus norvegicus [2]) | Activity (Rattus norvegicus [3]) | Activity (Rattus norvegicus [4]) | Activity (Rattus norvegicus [5]) | other results |
| --- | --- | --- | --- | --- | --- | --- | --- |
| – | – | Cc1cc(F)ccc1/N=C1\CCC(C)N1.Cl (stereo not drawn) | 8% | 6% | inactive | inactive | – |
| > 2.24 µM | 6.03 nM | CC1CC/C(=N\c2cc(N=[N+]=[N-])c(I)cc2Cl)N1 (stereo not drawn) | – | – | – | – | – |
| – | – | CC1CN/C(=N\c2cccc3c2CCCC3)C1.Cl (stereo not drawn) | 3% | 5% | inactive | inactive | – |
| > 10 µM | – | Cc1c(Cl)cccc1/N=C1\CC(C)CN1.Cl (stereo not drawn) | – | – | 33% | 30% | Activity (Rattus norvegicus [6]): 18%; Activity (Rattus norvegicus [7]): 30% |
| – | – | Cc1ccc(F)c(/N=C2\CCC(C)N2)c1.Cl (stereo not drawn) | 6% | 9% | inactive | inactive | – |
| > 10 µM | 5.3 nM | Cc1ccc(F)c(C2=NCCN2)c1 | – | – | – | – | – |
| > 10 µM | – | Cc1ccc(/N=C2/CC(C)CN2)c2c1CCC2.Cl (stereo not drawn) | 22% | 26% | 15% | 32% | – |
| – | – | Cc1ccc(Cl)c(/N=C2\CCC(C)N2)c1.Cl (stereo not drawn) | 7% | 7% | inactive | inactive | – |
| – | – | CC1CC/C(=N/c2cc3c(cc2Cl)CCC3)N1.Cl (stereo not drawn) | 3% | 9% | inactive | inactive | – |
| > 10 µM | 70 nM | Cc1cccc(/N=C2\CCC(C)N2)c1C.Cl (stereo not drawn) | 18% | 25% | 25% | 20% | – |
| > 2.5 µM | 0.2 nM | CC1CCC(Nc2ccc(I)cc2Cl)=N1 (stereo not drawn) | – | – | – | – | – |
| – | – | CC1CC/C(=N/c2ccc3c(c2)CCC3)N1.Cl (stereo not drawn) | 4% | 8% | inactive | inactive | – |
| – | 14.1 nM | Clc1cccc(Cl)c1N=C1NCCN1 [CLONIDINE] | – | – | – | – | – |
| > 10 µM | 6.4 nM | NC1=NCC(COc2ccccc2Br)O1 (stereo not drawn) | – | – | – | – | – |
| – | – | CC1CN/C(=N\c2ccc3c(c2)CCC3)C1.Cl (stereo not drawn) | 4% | 8% | inactive | inactive | – |
| > 10 µM | 19 nM | CC1CN/C(=N\c2cccc3c2CCC3)C1.Cl (stereo not drawn) | – | – | 30% | 30% | Activity (Rattus norvegicus [8]): 22%; Activity (Rattus norvegicus [7]): 35% |
| 0.18 µM | 83.1 nM | C1COC(NC(C2CC2)C2CC2)=N1 [RILMENIDINE] | – | – | – | – | Ratio Ki (CHO): 2.1 |
| > 10 µM | 73 nM | CC1CC/C(=N/c2cccc3c2CCCC3)N1.Cl (stereo not drawn) | 26% | 37% | 10% | 29% | – |
| > 10 µM | – | CC1CN/C(=N\c2ccc(Cl)c3c2CCC3)C1.Cl (stereo not drawn) | 6% | 10% | – | – | – |
| > 10 µM | – | CC1CC(NC(C2CC2)C2CC2)=NC1C (stereo not drawn) | – | – | – | – | Ki (Nischarin): 537 nM |
| – | 77.8 nM | COc1nc(C)nc(Cl)c1N=C1NCCN1 [MOXONIDINE] | – | – | – | – | – |
| – | – | Cc1cccc(C)c1/N=C1/CCC(C)N1.Cl (stereo not drawn) | 4% | 5% | inactive | inactive | – |
| > 10 µM | 27 nM | Cc1c(Cl)cccc1/N=C1\CCC(C)N1.Cl (stereo not drawn) | 20% | 28% | 30% | 25% | – |

| SMILES | Ki [1] | Ki (Nischarin; read-out: Ki) | Activity (Rattus norvegicus [2]) | Activity (Rattus norvegicus [3]) | Activity (Rattus norvegicus [4]) | Activity (Rattus norvegicus [5]) | other results |
| --- | --- | --- | --- | --- | --- | --- | --- |
| CC1CC/C(=N/c2cccc3c2CCC3)N1.Cl (stereo not drawn) | > 10 µM | 19 nM | 20% | 37% | 29% | 32% | – |
| Cc1c(Cl)cccc1NC1=NCC(C)C1 (stereo not drawn) | – | 3.2 nM | – | – | – | – | Ratio Ki (CHO): > 3000 |
| CC1CN=C(Nc2ccc(Cl)c3c2CCC3)C1 (stereo not drawn) | – | 0.22 nM | – | – | inactive | inactive | – |
| CC1CNC(Nc2c(Cl)cccc2Cl)=N1 (stereo not drawn) | > 1.949 µM | – | – | – | – | – | – |
| CC1CC/C(=N/c2ccc(Cl)c3c2CCC3)N1.Cl (stereo not drawn) | > 10 µM | – | 7% | 6% | – | – | – |
| Cc1cccc(/N=C2\CC(C)CN2)c1C.Cl (stereo not drawn) | 10 µM | 42 nM | – | – | 31% | 25% | Activity (Rattus norvegicus [8]): 20%; Activity (Rattus norvegicus [7]): 26% |
| CC1CCC(Nc2ccc(Cl)c3c2CCC3)=N1 (stereo not drawn) | – | 2.8 nM | – | – | inactive | inactive | – |
